Experimental findings from patent publication US10414741B2, “Amorphous vortioxetine and salts thereof” (CADILA HEALTHCARE LIMITED, priority 2013, dated 2019) are described below.

A short description of this series: stability of amorphous form under normal stability conditions. It is filed as physicochemical. An excerpt:
Therefore, there is no physical change observed from amorphous form to crystalline form during the stability.
In further aspect, the stable amorphous vortioxetine free base or vortioxetine hydrobromide can be stored under nitrogen atmosphere and packed in a double polythene bag tied with a thread, keeping primary packing containing amorphous vortioxetine or vortioxetine hydrobromide inside a black color polyethylene bag containing oxygen busters and sealing it, placing above the double polyethylene bag inside a triple laminated bag optionally containing oxygen busters and sealing it, and placing the sealed triple laminated bag inside a closed high density polyethylene (HDPE) container and storing in controlled environment chamber at 25° C. and/or 40° C.

In the case of `Cc1ccc(Sc2ccccc2N2CCNCC2)c(C)c1` [amorphous vortioxetine free base, 1-{2-[(2,4-dimethylphenyl)sulfanyl]phenyl}piperazine], the “stability of amorphous form (physical change from amorphous form to crystalline form)” value is recorded as “stable under normal stability conditions”.
